According to US20260193255A1, “7-AZAINDOLE COMPOUNDS, PREPARATION METHOD THEREFOR, AND USE THEREOF” (Fudan University, priority 2022, published 2026):
Values belong to the molecule of their own block, whether it stands above or below them.

Tests used:
ActRIIB = ActRIIB (Homo sapiens, UniProt Q13705); experiment: ActRIIB inhibitory activity, ADP-Glo assay kit; format: biochemical; details: ATP 25 μM, substrate 0.1 mg/mL, ActRIIB 20.0 ng/μL
Protocol: The ATP and substrate concentrations recommended by the ADP-Glo™ assay kit were used, which were 25 μM and 0.1 mg/mL, respectively, and a series of isocratic final ActRIIB concentrations were set up, which were 0, 0.47, 0.94, 1.88, 3.75, 7.5, 15, 30, and 60 ng/μL, respectively. According to the […] values obtained in the experiment, an ActRIIB concentration titration curve was drawn. The ActRIIB concentrations corresponding to the ratio of the signal value to the background value (i.e., signal-to-background ratio, SBR) in the range of 5-10 times are suitable for screening compounds for inhibition of ActRIIB activity. From the ActRIIB concentration titration curve, the final ActRIIB concentrations corresponding to SB5 and SB10 were calculated to be 14.9 and 23.7 ng/μL, respectively. Finally, a final concentration of 20.0 ng/μL was selected as the experimental concentration for screening compounds for their inhibitory activity against ActRIIB. The inhibitory efficiency of 7-azaindole compounds on ActRIIB was detected at concentrations of 0.1, 1, 10, and 100 nM, respectively.

mouse myoblasts (C2C12) = experiment: Atrophy of mouse myoblasts (C2C12) induced by C26 cell supernatant, myotube diameter by HE staining; format: cell-based; details: Mus musculus, 48 hours treatment, C26 supernatant-induced C2C12 myotubes, read-out: Myotube atrophy reversal rate
Protocol: C2C12 cells were inoculated in 24-well plates. The culture system was high-glucose DMEM medium containing 10% FBS with 1% penicillin-streptomycin. The plates were placed in a 5% CO2, 37° C. environment. When the cell growth density reached 50%-60%, the culture system was replaced with high-glucose DMEM culture medium containing 2% HS with 1% penicillin-streptomycin. Fresh 2% HS differentiation medium was replaced every 48 hours, and the cells were differentiated into mature cells on the 5th or 6th day. Additionally, C26 cells were inoculated in T75 flasks. The culture system was high-glucose DMEM medium containing 10% FBS with 1% penicillin-streptomycin. The flasks were placed in a 5% CO2, 37° C. environment. When subculturing, the cells were subcultured at 6 million cells/flask. After culturing in 20 ml of culture medium for 48 hours, the supernatant was collected and centrifuged at 1000 rpm for 3 mins. The supernatant was collected and centrifuged at 4000 rpm for 10 mins to obtain the C26 supernatant. The C26 supernatant and 2% HS differentiation solution were mixed at a ratio of 1:1 (volume ratio) as the muscle atrophy induction solution. Except for the control group in which 2% HS differentiation solution was added, for the other groups, an equivalent amount of muscular atrophy induction solution was added. One group was used as the model group, and the other groups were used as the treatment and experimental groups.
The diameter of myotubes after differentiation of mouse myoblasts (C2C12) was evaluated by using the diameter measurement method. The method for measuring the diameter of myotubes was as follows: after 48 hours of treatment, the myotubes were fixed with a fixative (anhydrous ethanol: formaldehyde: glacial acetic acid (volume ratio)=20:2:1) for more than 1 h and stained. The staining method used in the experiment is hematoxylin-eosin staining, referred to as HE staining for short. Hematoxylin stain is alkaline and positively charged, and it can easily bind to the negatively charged and acidic deoxyribonucleic acid (DNA) in the cell nucleus through ionic bonds to stain it blue; eosin is an acidic dye that dissociates into negatively charged anions in water, and it can easily bind to the positively charged amino groups of proteins in the cytoplasm to stain it red. The stained cells were placed under a high-power microscope to take pictures (magnification: 200 times), and the diameter of myotube cells was statistically analyzed using image J software. The muscle atrophy reversal rate was calculated according to the following formula: Muscle atrophy reversal rate=(average value of myotubes in the treatment group-average value of myotubes in the model group)/(average value of myotubes in the control group-average value of myotubes in the model group)×100%

[1] = tested on: C26 tumor cancer cachexia model, BALB/c mice; experiment: Cancer cachexia animal model, compounds 3 and 10 (C26 tumor, BALB/c mice, 10 mg/kg ip); format: in vivo, mouse; details: 10 mg/kg ip daily; for Cross-sectional area of gastrocnemius fibers: H&E sections; for Muscle grasp force: p<0.05
Protocol: C26 cells were inoculated in T75 flasks. The culture system was 1640 medium containing 10% FBS with 1% penicillin-streptomycin. The flasks were placed in a 5% CO2, 37° C. environment for expansion culture. The cells were collected by centrifugation at 1000 rpm for 3 mins, and the culture medium was washed away with ice-cold PBS buffer, and a cell suspension of 10 million/ml was prepared. The cell suspension was inoculated into the left and right armpits of BALB/c mice at a concentration of 1 million for tumor development. When the tumor volume increased to 1000 mm^3, the tumor was removed and homogenized with 3 ml of ice saline/g to obtain a tumor tissue suspension. The mice to be inoculated were divided into groups according to their weight, and the cell suspension was inoculated into the left armpit of BALB/c mice at an inoculation volume of 100 μl per mouse. Treatment was started from the day after inoculation. Compounds 3 and 10 were dissolved in 3% DMSO, 2% Solutol and 95% saline in sequence to form a uniform solution with the required concentration. The solution was prepared and used daily. The dose was 10 mg/kg and the compound was administered by intraperitoneal injection (ip). The body weight, temperature, tumor size and food intake of mice were monitored daily. […] In the middle stage of the experiment, the weight of the mice in the model group began to decrease, which was considered to have entered the mid-cachexia stage. When the tumor volume of the mice in the model group reached 2.0× 103 mm^3 or their body weight decreased by 10%, they were considered to have entered the late-cachexia stage. The muscle grasp force of the mice's forelimbs was tested at these three stages. At the end of the experiment, the mice were killed by cervical dislocation and the gastrocnemius, tibialis anterior, right hind limb and tumor samples were obtained, and the sample weights were measured. Gastrocnemius tissue of appropriate size was obtained, and H&E stained tissue sections were prepared through processes such as fixation, embedding, slicing, staining. At least 10 fields of view were randomly selected for slices of different groups for photographing, and the cross-sectional areas of all muscle fibers in the photographs were measured and statistically analyzed.
The method for detecting muscle grasp force was as follows: The muscle grasp force of mice was tested on the 3rd day (pre-cachexia stage), the 11th day (mid-cachexia stage) and the 16th day (late-cachexia stage) of the experiment. The mouse was steadily placed on the YLS-13A Mouse and Rat Grasp Force Tester by using the right hand, so that its forelimbs could tightly grasp the gripping disk, and the gripping disk was stabilized by using the left hand moving forward. When the left hand slowly released the gripping disk, the right hand immediately and slowly pulled the mouse's tail backwards until its forelimbs were separated from the gripping disk. The test was repeated 8 times for each mouse, and the mean value of the 8 measurements was used as the skeletal muscle strength index of each mouse.

ActRIIB, sequence (Q13705 19-512): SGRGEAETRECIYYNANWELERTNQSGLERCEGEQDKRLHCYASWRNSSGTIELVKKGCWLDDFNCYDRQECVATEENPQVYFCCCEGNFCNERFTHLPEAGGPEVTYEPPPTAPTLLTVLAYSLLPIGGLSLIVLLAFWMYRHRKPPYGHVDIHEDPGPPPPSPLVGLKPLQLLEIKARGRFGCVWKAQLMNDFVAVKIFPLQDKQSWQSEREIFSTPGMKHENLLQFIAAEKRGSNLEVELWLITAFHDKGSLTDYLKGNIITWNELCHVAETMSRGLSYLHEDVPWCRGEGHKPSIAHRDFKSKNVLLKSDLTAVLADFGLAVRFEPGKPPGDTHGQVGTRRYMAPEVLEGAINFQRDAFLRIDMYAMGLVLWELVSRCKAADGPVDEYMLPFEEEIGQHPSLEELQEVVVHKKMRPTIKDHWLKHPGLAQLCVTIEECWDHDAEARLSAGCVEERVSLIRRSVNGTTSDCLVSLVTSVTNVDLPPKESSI

IC50 (ActRIIB): 1.1 nM
Structure (SMILES): CN1CCN(c2ccc(-c3cnc4[nH]cc(-c5ccc6[nH]ccc6c5)c4c3)cc2)CC1 [Compound 3, 3-(1H-indol-5-yl)-5-[4-(4-methylpiperazin-1-yl)phenyl]-1H-pyrrolo[2,3-b]pyridine]
inhibition at 2.5 µM (mouse myoblasts (C2C12)): 90.9%
Average accumulative food intake vs C26 tumor model group [1]: slightly higher than that in the C26 tumor model group
Gastrocnemius atrophy (muscle mass) [1]: cannot significantly alleviate the gastrocnemius atrophy in cachectic mice
Right hind limb weight (skeletal muscle atrophy) [1]: improve skeletal muscle atrophy in cachectic mice to a certain extent
Tibialis anterior atrophy (muscle mass) [1]: cannot significantly alleviate the tibialis anterior atrophy in cachectic mice
Tumor volume vs C26 tumor model group [1]: slightly reduced compared with the C26 tumor model group, but there was no significant difference
Weight loss (tumor-bearing and tumor-free body weight) vs C26 tumor model group [1]: alleviate the weight loss of mice to some extent
Cross-sectional area of gastrocnemius fibers [1]: significantly alleviate the reduction in the cross-sectional area of the gastrocnemius in cachectic mice
Muscle grasp force [1]: significantly enhance the muscle grasp force of cachexia mice

IC50 (ActRIIB): 1.2 nM
Structure (SMILES): CN1CCN(c2ccc(-c3cnc4[nH]cc(-c5ccccc5)c4c3)cc2)CC1 [Compound 25, 5-[4-(4-methylpiperazin-1-yl)phenyl]-3-phenyl-1H-pyrrolo[2,3-b]pyridine]
inhibition at 5 µM (mouse myoblasts (C2C12)): 77.1%

IC50 (ActRIIB): 4 nM
Structure (SMILES): c1cc(-c2c[nH]c3ncc(-c4ccc(OCCN5CCOCC5)cc4)cc23)n[nH]1 [Compound 10, 3-(1H-pyrazol-3-yl)-5-(4-[[2-(1,4-oxazacyclohexan-4-yl)ethyl]oxy]phenyl)-1H-pyrrolo[2,3-b]pyridine]
inhibition at 1.25 µM (mouse myoblasts (C2C12); 1.25 μM): 42.4%
inhibition at 2.5 µM (mouse myoblasts (C2C12)): 58.9%
inhibition at 5 µM (mouse myoblasts (C2C12)): 100%
Average accumulative food intake vs C26 tumor model group [1]: slightly higher than that in the C26 tumor model group
Gastrocnemius atrophy (muscle mass) [1]: cannot significantly alleviate the gastrocnemius atrophy in cachectic mice
Right hind limb weight (skeletal muscle atrophy) [1]: improve skeletal muscle atrophy in cachectic mice to a certain extent
Tibialis anterior atrophy (muscle mass) [1]: cannot significantly alleviate the tibialis anterior atrophy in cachectic mice
Tumor volume vs C26 tumor model group [1]: slightly reduced compared with the C26 tumor model group, but there was no significant difference
Weight loss (tumor-bearing and tumor-free body weight) vs C26 tumor model group [1]: significantly alleviate the weight loss of mice
Cross-sectional area of gastrocnemius fibers [1]: significantly alleviate the reduction in the cross-sectional area of the gastrocnemius in cachectic mice
Muscle grasp force [1]: significantly enhance the muscle grasp force of cachexia mice

IC50 (ActRIIB): 59.3 nM
Structure (SMILES): CN1CCN(c2ccc(-c3cnc4[nH]cc(-c5ccncc5)c4c3)cc2)CC1 [Compound 24, 5-[4-(4-methylpiperazin-1-yl)phenyl]-3-(pyridin-4-yl)-1H-pyrrolo[2,3-b]pyridine]
inhibition at 5 µM (mouse myoblasts (C2C12)): 76.7%

IC50 (ActRIIB): 4.4 nM
Structure (SMILES): CCn1nccc1-c1c[nH]c2ncc(-c3ccc(N4CCN(C)CC4)cc3)cc12 [Compound 7, 3-(2-ethylpyrazol-3-yl)-5-[4-(4-methylpiperazin-1-yl)phenyl]-1H-pyrrolo[2,3-b]pyridine]
inhibition at 10 µM (mouse myoblasts (C2C12)): 77.1%

IC50 (ActRIIB): 2.6 nM
Structure (SMILES): CC(C)n1nccc1-c1c[nH]c2ncc(-c3ccc(N4CCN(C)CC4)cc3)cc12 [Compound 8, 5-[4-(4-methylpiperazin-1-yl)phenyl]-3-[2-(prop-2-yl)pyrazol-3-yl]-1H-pyrrolo[2,3-b]pyridine]
inhibition at 5 µM (mouse myoblasts (C2C12)): 62.2%

IC50 (ActRIIB): 70.8 nM
Structure (SMILES): CN1CCN(c2ccc(-c3cnc4[nH]cc(-c5cnn(C)c5)c4c3)cc2)CC1 [Compound 9, 5-[4-(4-methylpiperazin-1-yl)phenyl]-3-(1-methylpyrazol-4-yl)-1H-pyrrolo[2,3-b]pyridine]
inhibition at 2.5 µM (mouse myoblasts (C2C12)): 61.1%

IC50 (ActRIIB): 78.9 nM
Structure (SMILES): CCN(CC)CCOc1ccc(-c2cnc3[nH]cc(-c4ccnn4C)c3c2)cc1 [Compound 18, 5-(4-{[2-(diethylamino)ethyl]oxy}phenyl)-3-(2-methylpyrazol-3-yl)-1H-pyrrolo[2,3-b]pyridine]
inhibition at 10 µM (mouse myoblasts (C2C12)): 84.5%

IC50 (ActRIIB): 87.3 nM
Structure (SMILES): CN1CCN(c2ccc(-c3cnc4[nH]cc(-c5cccnc5)c4c3)cc2)CC1 [Compound 22, 5-[4-(4-methylpiperazin-1-yl)phenyl]-3-(pyridin-3-yl)-1H-pyrrolo[2,3-b]pyridine]
inhibition at 5 µM (mouse myoblasts (C2C12)): 75.4%
